“And” between values parts separate entries of the source, which are not always exact repeats. Equal values may be shown once. Inconclusive results and toxic doses are left out.
System: B6C3F1 mice, Lewis lung carcinoma iv, survival T/C
Experiment: NCI In Vivo Anticancer Drug Screen. Data for tumor model Lewis Lung Carcinoma (intravenous) in B6C3F1 mice
Settings: endpoint: median survival time, higher = longer survival
Method in brief: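 Antitumor activity is assessed in tumor-bearing mice by comparing survival after compound treatment against vehicle-treated controls, reported as a T/C ratio.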

[1] = dose: 1.5 mg/kg/injection, schedule: Q01DX009 (ip), vehicle: water
[2] = dose: 3.0 mg/kg/injection, schedule: Q01DX009 (ip), vehicle: water
[3] = dose: 12.5 mg/kg/injection, schedule: Q01DX009 (ip), vehicle: distilled water + Tween-80
[4] = dose: 12.5 mg/kg/injection, schedule: Q01DX009 (ip), vehicle: saline with Tween-80
[5] = dose: 25.0 mg/kg/injection, schedule: Q01DX009 (ip), vehicle: saline with Tween-80
[6] = dose: 50.0 mg/kg/injection, schedule: Q01DX009 (ip), vehicle: saline with Tween-80
[7] = dose: 100.0 mg/kg/injection, schedule: Q01DX009 (ip), vehicle: saline with Tween-80
[8] = dose: 0.5 mg/kg/injection, schedule: Q01DX009 (ip), vehicle: saline
[9] = dose: 2.0 mg/kg/injection, schedule: Q01DX009 (ip), vehicle: saline
[10] = dose: 25.0 mg/kg/injection, schedule: Q01DX009 (ip), vehicle: Klucel (hydroxypropylcellulose) (HPC)
[11] = dose: 50.0 mg/kg/injection, schedule: Q01DX009 (ip), vehicle: Klucel (hydroxypropylcellulose) (HPC)
[12] = dose: 100.0 mg/kg/injection, schedule: Q01DX009 (ip), vehicle: Klucel (hydroxypropylcellulose) (HPC)
[13] = dose: 200.0 mg/kg/injection, schedule: Q01DX009 (ip), vehicle: Klucel (hydroxypropylcellulose) (HPC)
[14] = dose: 25.0 mg/kg/injection, schedule: Q01DX009 (ip), vehicle: suspension in saline
[15] = dose: 50.0 mg/kg/injection, schedule: Q01DX009 (ip), vehicle: suspension in saline
[16] = dose: 100.0 mg/kg/injection, schedule: Q01DX009 (ip), vehicle: suspension in saline
[17] = dose: 200.0 mg/kg/injection, schedule: Q01DX009 (ip), vehicle: suspension in saline
[18] = dose: 12.5 mg/kg/injection, schedule: Q01DX009 (ip), vehicle: saline
[19] = dose: 25.0 mg/kg/injection, schedule: Q01DX009 (ip), vehicle: saline
[20] = dose: 1.56 mg/kg/injection, schedule: Q01DX009 (ip), vehicle: saline
[21] = dose: 3.12 mg/kg/injection, schedule: Q01DX009 (ip), vehicle: saline
[22] = dose: 6.25 mg/kg/injection, schedule: Q01DX009 (ip), vehicle: saline

## COc1cccc2c1C(=O)c1c(O)c3c(c(O)c1C2=O)C[C@@](O)(C(=O)CO)C[C@@H]3OC1CC(OC(C)=O)C(OC(C)=O)C(C)O1 (stereo partly drawn)
dose: 0.78 mg/kg/injection, schedule: Q01DX009 (ip), vehicle: water
  T/C: 91 % of control
[1]
  T/C: 119 % of control
dose: 1.56 mg/kg/injection, schedule: Q01DX009 (ip), vehicle: distilled water + Tween-80
  T/C: 106 % of control
dose: 1.56 mg/kg/injection, schedule: Q01DX009 (ip), vehicle: water
  T/C: 103 % of control
[2]
  T/C: 111 % of control
dose: 3.12 mg/kg/injection, schedule: Q01DX009 (ip), vehicle: distilled water + Tween-80
  T/C: 113 % of control
dose: 3.12 mg/kg/injection, schedule: Q01DX009 (ip), vehicle: water
  T/C: 111 % of control
dose: 12.0 mg/kg/injection, schedule: Q01DX009 (ip), vehicle: water
  T/C: 266 % of control
[3]
  T/C: 285 % of control

## COc1ccc2c(ccc3oc([N+](=O)[O-])cc32)c1
[4]
  T/C: 98 % of control
[5]
  T/C: 110 % of control
[6]
  T/C: 104 % of control
[7]
  T/C: 100 % of control

## Nc1nc(=S)c2[nH]cnc2[nH]1
[8]
  T/C: 104 % of control
[9]
  T/C: 114 % of control

## COC(=O)Nc1nc2ccc(SC)cc2c(=O)[nH]1
[10]
  T/C: 99 % of control
[11]
  T/C: 110 % of control
[12]
  T/C: 100 % of control
[13]
  T/C: 110 % of control

## CCCN1COC(OCC)C(C)(C)C1 (stereo not drawn)
[4]
  T/C: 103 % of control and 111 % of control
[5]
  T/C: 93 % of control and 99 % of control
[6]
  T/C: 106 % of control and 112 % of control
[7]
  T/C: 100 % of control and 101 % of control

## NC(=S)N/N=C\c1ncccc1OCc1cccc(N)c1
[3]
  T/C: 103 % of control
dose: 25.0 mg/kg/injection, schedule: Q01DX009 (ip), vehicle: distilled water + Tween-80
  T/C: 109 % of control
dose: 50.0 mg/kg/injection, schedule: Q01DX009 (ip), vehicle: distilled water + Tween-80
  T/C: 109 % of control
dose: 100.0 mg/kg/injection, schedule: Q01DX009 (ip), vehicle: distilled water + Tween-80
  T/C: 102 % of control
dose: 200.0 mg/kg/injection, schedule: Q01DX009 (ip), vehicle: distilled water + Tween-80
  T/C: 121 % of control

## O=C1NC(O)c2ccccc2O1 (stereo not drawn)
[14]
  T/C: 106 % of control
[15]
  T/C: 89 % of control
[16]
  T/C: 107 % of control
[17]
  T/C: 97 % of control

## Cn1cnc([N+](=O)[O-])c1SCC(=O)O
[18]
  T/C: 100 % of control
[19]
  T/C: 107 % of control
dose: 50.0 mg/kg/injection, schedule: Q01DX009 (ip), vehicle: saline
  T/C: 103 % of control
dose: 100.0 mg/kg/injection, schedule: Q01DX009 (ip), vehicle: saline
  T/C: 93 % of control
dose: 200.0 mg/kg/injection, schedule: Q01DX009 (ip), vehicle: saline
  T/C: 104 % of control
dose: 400.0 mg/kg/injection, schedule: Q01DX009 (ip), vehicle: saline
  T/C: 96 % of control

## O=P(O)(NCCCl)NCCCl
dose: 25.0 mg/kg/injection, schedule: Q01DX001 (ip), vehicle: saline with Tween-80
  T/C: 108 % of control
dose: 100.0 mg/kg/injection, schedule: Q01DX001 (ip), vehicle: saline with Tween-80
  T/C: 184 % of control and 226 % of control and 312 % of control
dose: 200.0 mg/kg/injection, schedule: Q01DX001 (ip), vehicle: saline with Tween-80
  T/C: 281 % of control

## CCN(CC)CC[n+]1ccc2c(C)c3[nH]c4ccc(O)cc4c3c(C)c2c1
[20]
  T/C: 95 % of control
dose: 1.56 mg/kg/injection, schedule: Q01DX009 (ip), vehicle: suspension in saline
  T/C: 106 % of control
[21]
  T/C: 100 % of control
dose: 3.12 mg/kg/injection, schedule: Q01DX009 (ip), vehicle: suspension in saline
  T/C: 100 % of control
[22]
  T/C: 106 % of control
dose: 6.25 mg/kg/injection, schedule: Q01DX009 (ip), vehicle: suspension in saline
  T/C: 116 % of control
[18]
  T/C: 98 % of control

## Oc1c(Cl)cc(C(c2cc(Cl)c(O)c(Cl)c2)C(c2cc(Cl)c(O)c(Cl)c2)c2cc(Cl)c(O)c(Cl)c2)cc1Cl
dose: 12.5 mg/kg/injection, schedule: Q01DX009 (ip), vehicle: Klucel (hydroxypropylcellulose) (HPC)
  T/C: 98 % of control
[10]
  T/C: 101 % of control
[11]
  T/C: 104 % of control
[12]
  T/C: 103 % of control
[13]
  T/C: 106 % of control

## NC(=O)c1ccc[n+](Cc2c(Cl)cccc2Cl)c1
dose: 5.0 mg/kg/injection, schedule: Q01DX009 (ip), vehicle: saline
  T/C: 104 % of control
dose: 10.0 mg/kg/injection, schedule: Q01DX009 (ip), vehicle: saline
  T/C: 105 % of control
dose: 20.0 mg/kg/injection, schedule: Q01DX009 (ip), vehicle: saline
  T/C: 104 % of control
dose: 40.0 mg/kg/injection, schedule: Q01DX009 (ip), vehicle: saline
  T/C: 91 % of control

## COc1cc2c(c(OC)c1OC)-c1ccc(OC)c(=O)cc1[C@@H](NC(C)=O)CC2
dose: 0.06 mg/kg/injection, schedule: Q01DX009 (ip), vehicle: saline
  T/C: 108 % of control
dose: 0.12 mg/kg/injection, schedule: Q01DX009 (ip), vehicle: saline
  T/C: 92 % of control
dose: 0.19 mg/kg/injection, schedule: Q01DX009 (ip), vehicle: saline
  T/C: 99 % of control
dose: 0.25 mg/kg/injection, schedule: Q01DX009 (ip), vehicle: saline
  T/C: 100 % of control
dose: 0.39 mg/kg/injection, schedule: Q01DX009 (ip), vehicle: saline
  T/C: 104 % of control
[8]
  T/C: 93 % of control
dose: 0.78 mg/kg/injection, schedule: Q01DX009 (ip), vehicle: saline
  T/C: 104 % of control
dose: 1.0 mg/kg/injection, schedule: Q01DX009 (ip), vehicle: saline
  T/C: 100 % of control
[9]
  T/C: 112 % of control

## COc1cccc2c1C(=O)c1c(O)c3c(c(O)c1C2=O)CC(O)(/C(C)=N/NC(=O)CCCCC(=O)N/N=C(\C)C1(O)Cc2c(O)c4c(c(O)c2C(OC2CC(N)C(O)C(C)O2)C1)C(=O)c1c(OC)cccc1C4=O)CC3OC1CC(N)C(O)C(C)O1 (stereo not drawn)
[1]
  T/C: 120 % of control
[2]
  T/C: 109 % of control
dose: 6.25 mg/kg/injection, schedule: Q01DX009 (ip), vehicle: water
  T/C: 117 % of control

## C[n+]1c2cc(N)ccc2cc2ccc(N)cc21
dose: 1.5 mg/kg/injection, schedule: Q01DX009 (ip), vehicle: saline
  T/C: 102 % of control
dose: 3.0 mg/kg/injection, schedule: Q01DX009 (ip), vehicle: saline
  T/C: 95 % of control
dose: 6.0 mg/kg/injection, schedule: Q01DX009 (ip), vehicle: saline
  T/C: 107 % of control
dose: 12.0 mg/kg/injection, schedule: Q01DX009 (ip), vehicle: saline
  T/C: 90 % of control

## Cc1c2cc[n+](CCN3CCCCC3)cc2c(C)c2c1[nH]c1ccc(O)cc12
[20]
  T/C: 94 % of control
[21]
  T/C: 116 % of control
[22]
  T/C: 106 % of control
[18]
  T/C: 103 % of control
[19]
  T/C: 104 % of control

## CCOC(=O)C1=C(C#N)C2(CCC(OCc3ccccc3)CC2)C(=O)O1 (stereo not drawn)
dose: 12.5 mg/kg/injection, schedule: Q01DX009 (ip), vehicle: suspension in saline
  T/C: 94 % of control
[14]
  T/C: 94 % of control
[15]
  T/C: 92 % of control
[16]
  T/C: 95 % of control
[17]
  T/C: 102 % of control

## CCC(=O)Sc1ccccc1C(=O)Nc1ccc(Cl)cc1
[5]
  T/C: 94 % of control
[6]
  T/C: 100 % of control
[7]
  T/C: 107 % of control
dose: 200.0 mg/kg/injection, schedule: Q01DX009 (ip), vehicle: saline with Tween-80
  T/C: 89 % of control
dose: 400.0 mg/kg/injection, schedule: Q01DX009 (ip), vehicle: saline with Tween-80
  T/C: 105 % of control

## COc1cc2c3c(cccc3c1)C(=O)N(CCN(C)C)C2=O
dose: 5.0 mg/kg/injection, schedule: Q01DX009 (ip), vehicle: saline with Tween-80
  T/C: 101 % of control
dose: 10.0 mg/kg/injection, schedule: Q01DX009 (ip), vehicle: saline with Tween-80
  T/C: 110 % of control
dose: 20.0 mg/kg/injection, schedule: Q01DX009 (ip), vehicle: saline with Tween-80
  T/C: 122 % of control
dose: 40.0 mg/kg/injection, schedule: Q01DX009 (ip), vehicle: saline with Tween-80
  T/C: 101 % of control
dose: 80.0 mg/kg/injection, schedule: Q01DX009 (ip), vehicle: saline with Tween-80
  T/C: 119 % of control
